Results taken from patent publication US8691183B2, “Means for the detection and treatment of prostate cells” (Eberhard-Karls-Universitaet Tuebingen Universitaetsklinikum, priority 2008, dated 2014).

How the values were obtained:
[1] = tested on: human prostate carcinoma (PC3) implanted into nude mice; test: CLSM of frozen sections of implanted tumor after intraperitoneal injection; type: in vivo, nude mouse
Method: (§1) PC3 and LNCaP prostate tumor cells were grown to 80% confluency, detached with Accutase™ (PAA Laboratories, Pasching, Austria) and then harvested. The cells were washed with PBS three times and then drawn up into a 30 g Micro-Fine™ insulin syringe (Becton Dickinson, Franklin Lakes, N.J., USA). Approximately 5×10^5 cells per mouse were injected into the right thigh of a male CD1 Nu/Nu mouse (Charles River, WIGA, Sulzfeld, Germany). The tumor growth was monitored and after 10 to 14 days mice bearing tumors with 2-3 mm in diameter were treated with the conjugate. 1.5 mg of the compound 1 were dissolved in 300 μl PBS containing 20% ethanol and applied intraperitoneally. After 90 minutes of circulation the mice were sacrificed and subsequently the tumors and organs were removed, embedded in Jung tissue freezing medium (Leica Instruments, Nussloch, Germany) and frozen in liquid nitrogen. Frozen sections (5 μm thickness) were prepared (LD3000 Cryotom, Leica Biosystems GmbH, Nussloch, Germany) and the rhodamine staining was analyzed by confocal laser scanning
To evaluate the in- and efflux of the rhodamine conjugated compound 1, the experiment was repeated with circulation times of 20 minutes and 180 minutes.
(§2) The experiments were repeated two times.

[2] = tested on: nude mice organs; test: CLSM of frozen sections of nude mice organs after intraperitoneal injection; type: in vivo, nude mouse; settings: 90 minutes after intraperitoneal injection
Method: as §1, §2

[3] = tested on: PC-3 prostate carcinoma cells; test: Confocal laser scanning microscopy (CLSM) of cellular uptake; type: cell-based, human; settings: 20 minutes incubation, 10 μg/ml
Method: (§3) The cells were grown to 80% confluency at 37° C., 5% CO2 (vol/vol) in 4-well plates (NUNC, Wiesbaden, Germany) with about 300,000 cells per well.
(§4) U373 human glioma cells, human prostate carcinoma cells PC3 and LNCaP, human Jurkat lymphoma cells, and human colon carcinoma cells Colo205 were grown in RPMI1640 ready mix medium containing L-glutamine and 10% fetal bovine serum (FBS)-gold (PAA Laboratories, Pasching, Austria). U2OS human osteosarcoma cells and HeLa human cervix carcinoma cells were grown in high glucose Dulbeccos modified Eagle's medium containing GlutaMax™ and pyrovate and 10% FBS-gold. Healthy human prostate cells (CC2555, Lonza, Verviers, Belgium) were cultivated in prostate endothelial cell growth medium (PrEGM, Lonza, Verviers, Belgium).
(§5) The compounds 1, 2 and 4 were dissolved at 1 mg/ml in pure ethanol (Riedel de Haen, Sigma-Aldrich, Taufkirchen, Germany) and then diluted in the appropriate medium for the cells to 10 μg/ml of conjugate and 1% ethanol. The cells were incubated at 37° C. in an atmosphere of 5% CO2 for 20 minutes with the compounds. After this, the cells were rinsed three times with medium and then incubated with medium again. This experiment was also performed with free sulforhodamine B with a corresponding amount.
The compound 10 was dissolved in culture medium (260 μM). Lys(FITC)-aminobourgeonal (compound 7) was dissolved in culture medium with 1% ethanol (260 μM). The cells were incubated for 20 minutes (compound 10) and for 2 days (compounds 7 and 10). This assay was also performed with free FITC. After the incubation the cells were rinsed three times with medium and again incubated in medium. Propidium iodide (PI) (molecular probes, Eugene, Oreg., USA) was added to stain death cells.
(§6) The confocal laser scanning microscopy was performed on an inverted LSM510 laser scanning microscope (Carl Zeiss) (objective: LD Achroplan 40×0.6, Plan Neofluar 20×0.50, 40×0.75). For the rhodamine fluorescence excitation the 543 nm beam of a helium-neon laser with suitable beam splitters and barrier filters were used. […]

[4] = tested on: PC3 prostate carcinoma; test: Touch prints of the tumor after intraperitoneal injection; type: in vivo, nude mouse; settings: 20 minutes after intraperitoneal injection; no fixation
Method: For touch prints, the tumor of a mouse treated with the rhodamine containing compound 1 (1.5 mg intraperitoneally for 20 minutes) was excised. The tumor was cut and the cells were streaked onto a slide without fixation. The tumor cells were immediately analyzed by CLSM (without fixation).
as §2

[5] = tested on: non-prostate tumor cell lines (colo 205 colon carcinoma, U373 glioma, U2OS osteosarcoma, HeLa cervix carcinoma, jurkat lymphoma); test: Confocal laser scanning microscopy (CLSM) of cellular uptake; type: cell-based, human; settings: all other (non-prostate) tumor cells; 20 minutes incubation; 10 μg/ml
Method: as §3, §4, §5
(§7) The confocal laser scanning microscopy was performed on an inverted LSM510 laser scanning microscope (Carl Zeiss) (objective: LD Achroplan 40×0.6, Plan Neofluar 20×0.50, 40×0.75). For the rhodamine fluorescence excitation the 543 nm beam of a helium-neon laser with suitable beam splitters and barrier filters were used. All measures were performed at least three times on living, non-fixed cells.

[6] = tested on: LNCaP prostate carcinoma cells; test: as above; type: cell-based, human; settings: 20 minutes incubation, 10 μg/ml
Method: as §3, §4, §5, §7

[7] = Tolerability in the animals; type: in vivo; settings: intraperitoneal injection, nude mice
[8] = tested on: healthy human epithelial prostate cells (CC2555); test: Confocal laser scanning microscopy (CLSM) of cellular uptake; type: cell-based; settings: 20 minutes incubation, 10 μg/ml
Method: as §3, §4
The compounds 1, 2 and 4 were dissolved at 1 mg/ml in pure ethanol (Riedel de Haen, Sigma-Aldrich, Taufkirchen, Germany) and then diluted in the appropriate medium for the cells to 10 μg/ml of conjugate and 1% ethanol. The cells were incubated at 37° C. in an atmosphere of 5% CO2 for 20 minutes with the compounds. […]
as §6

In the case of CCN(CC)c1ccc2c(-c3ccc(S(=O)(=O)NCCCCCCCCCCC=O)cc3S(=O)(=O)O)c3ccc(=[N+](CC)CC)cc-3oc2c1 [compound 1, sulforhodamine-sulfonamido-aminoundecylic aldehyde], the “absorption into the cytoplasm of the prostate carcinoma cells” value ([1]; 20 minutes after intraperitoneal injection) was “very well absorbed”, the “rhodamine fluorescence of the prostate carcinoma in frozen sections” value ([1]; 90 minutes after intraperitoneal injection, in comparison to lymph nodes and lung) was “significantly stronger red fluorescence” and the “compound in the cytoplasm of the prostate carcinoma cells” value ([1]; 180 minutes after intraperitoneal injection) was “efflux of the compound out of the cytoplasm”. For the same molecule, the “staining of healthy prostate tissue of the mouse” value [2] was “almost no staining”, the “uptake into the cells (rhodamine staining, CLSM)” value (from here on “uptake into the cells”) [3] was “take up the compound according to the invention into the cytoplasm” and the “compound in tumor cells of touch prints” value [4] was “reached the cytoplasm of the prostate carcinoma cells”. For the same molecule, the “uptake into the cells” value [5] was “do not take up the compound according to the invention”, the “uptake into the cells” value [6] was “take up the compound according to the invention into the cytoplasm” and the tolerability [7] was “very well tolerated by the animals”. For the same molecule, the “uptake into the cells” value [8] was “take up the compound according to the invention into the cytoplasm”.
